Results: patent publication US20220144812A1, “QUINOLINE DERIVATIVES AND THEIR USE FOR THE TREATMENT OF CANCER” (Epizyme, Inc., priority 2019, published 2022)

Key:
5637 bladder cell line = assay: 7-day proliferation assay, 5637; format: cell-based; conditions: 168 h; 5637, 7 days, CellTiter-Glo
Description: (§1) This example describes methods and materials for 7-day proliferation assay.
(§2) A total of 22 bladder cell lines were used (see table below). Cell lines were cultured in recommended growth media according to supplier.
(§3) Cells were in culture media at a density optimized for a 7-day culture in a final volume of 150 μL per well in white opaque 96-well plates. Cells were allowed to adhere for several hours (4-6 h) then compounds were added with HPD300 Digital Dispenser and placed into the incubator at 37° C., 5% CO2 for 7 days. After 7 days incubation, 100 μL of CellTiter-Glo® Luminescent Cell Viability Assay (Promega-G7573) reagents were added per well. After 20 minutes incubation luminescence was measured in plate reader. IC50 were calculated from a non-linear logarithmic growth curve.
(§4) IC50 values (nanomolar (nM)) are summarized in the table below, which depicts the inhibitory effect of certain compounds in bladder cell lines.

SW780 bladder cell line = assay: 7-day proliferation assay, SW780; format: cell-based; conditions: Homo sapiens, 168 h; SW780, 7 days, CellTiter-Glo
Description: as §1, §2, §3, §4

TCCSUP bladder cell line = assay: 7-day proliferation assay, TCCSUP; format: cell-based; conditions: Homo sapiens, TCC-SUP, 168 h, 7 days, CellTiter-Glo
Description: as §1, §2, §3, §4

[1] = tested on: HB-CLS-2 bladder cell line; assay: 7-day proliferation assay, HB-CLS-2; format: cell-based; conditions: 168 h; HB-CLS-2, 7 days, CellTiter-Glo
Description: as §1, §2, §3, §4

[2] = tested on: H3K18Ac in HB-CLS-2 cells; assay: H3K18AC in-cell western (ICW) assay; format: cell-based; conditions: H3K18Ac in-cell western; read-out: CREBBP ICW IC50
Method in brief: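 HB-CLS-2 cells seeded 16–24 hours before 2 hr compound treatment at 37° C, 5% CO2, then methanol-fixed. H3K18Ac detected with rabbit monoclonal primary (overnight, 4° C) and 800CW anti-rabbit secondary; DRAQ5 stained DNA. Plates imaged at 700 and 800 nm for integrated intensity; IC50 in μM.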

CREBBP (1084-1701) = target: T1, CREBBP (1084-1701) (Homo sapiens, UniProt Q92793); assay: Biochemical assay for CREBBP (1084-1701), SAMDI; conditions: SAMDI, read-out: CREBBP Biochemistry IC50
T1 construct: measured in the following biochemical assay using CREBBP (1084-1701); purchased
T1 sequence (Q92793 1084-1701): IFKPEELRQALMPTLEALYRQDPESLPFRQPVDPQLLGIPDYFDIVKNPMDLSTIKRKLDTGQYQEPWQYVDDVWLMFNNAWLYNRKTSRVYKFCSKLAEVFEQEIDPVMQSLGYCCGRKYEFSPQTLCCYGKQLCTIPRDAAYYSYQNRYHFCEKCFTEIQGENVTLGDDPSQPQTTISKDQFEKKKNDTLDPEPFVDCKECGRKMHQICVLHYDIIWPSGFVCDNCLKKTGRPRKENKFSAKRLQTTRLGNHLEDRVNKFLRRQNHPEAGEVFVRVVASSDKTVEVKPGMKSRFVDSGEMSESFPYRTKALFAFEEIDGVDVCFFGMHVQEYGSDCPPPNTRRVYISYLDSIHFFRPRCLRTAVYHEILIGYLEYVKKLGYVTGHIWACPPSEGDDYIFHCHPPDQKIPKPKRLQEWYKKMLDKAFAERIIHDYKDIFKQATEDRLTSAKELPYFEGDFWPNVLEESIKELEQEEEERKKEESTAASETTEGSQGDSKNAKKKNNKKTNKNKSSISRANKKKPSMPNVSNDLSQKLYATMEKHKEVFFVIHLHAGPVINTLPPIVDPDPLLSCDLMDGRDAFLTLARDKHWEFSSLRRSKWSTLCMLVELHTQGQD
Method in brief: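 CREBBP (1084-1701) preincubated with compound 30 min at RT, then substrate mix (biotin-H3 11-25 K14R/K23R peptide, acetyl-CoA) added for 30 min at RT. Reaction stopped with formic acid, neutralised with sodium bicarbonate. Peptide acetylation read by SAMDI mass spectrometry to derive IC50.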

BC3C bladder cell line = assay: 7-day proliferation assay, BC3C; format: cell-based; conditions: 168 h, 7 days, CellTiter-Glo
Description: as §1, §2, §3, §4

SW1710 bladder cell line = assay: 7-day proliferation assay, SW1710; format: cell-based; conditions: Homo sapiens, 168 h; SW1710, 7 days, CellTiter-Glo
Description: as §1, §2, §3, §4

639V bladder cell line = assay: 7-day proliferation assay, 639V; format: cell-based; conditions: Homo sapiens, 168 h, 7 days, CellTiter-Glo
Description: as §1, §2, §3, §4

Row | IC50 (SW780 bladder cell line) [nM] | IC50 [2] [nM] | IC50 (CREBBP (1084-1701)) [nM] | IC50 (SW1710 bladder cell line) [nM] | Compound | IC50 (5637 bladder cell line) [nM] | IC50 (TCCSUP bladder cell line) [nM] | IC50 [1] [nM] | IC50 (BC3C bladder cell line) [nM] | IC50 (639V bladder cell line) [nM]
1 | 228 | 40 | 21 | 290 | CCn1ncc(CN(C)C(=O)c2cc(-c3ccc(NCCNC)c(C)n3)nc3ccc(Cl)cc23)c1C [Compound 3, 6-chloro-N-[(1-ethyl-5-methyl-1H-pyrazol-4-yl)methyl]-N-methyl-2-(6-methyl-5-{[2-(methylamino)ethyl]amino}pyridin-2-yl)quinoline-4-carboxamide] | 133 | 7600 | 220 | 5100 | 40
2 | 126 | 23.1 | 17.1 | 184 | CCn1ncc(CN(C)C(=O)c2cc(-c3ccc(NC4CN(C)C4)c(C)n3)nc3ccc(Cl)cc23)c1C [Compound 480] | 147 | 10000 | 344 | 10000 | 57
3 | 322 | 48.3 | 32.8 | 190 | CCc1noc(CN(C)C(=O)c2cc(-c3ccc(NCCNC)c(C)n3)nc3ccc(Cl)cc23)c1C [Compound 537] | 197 | 10000 | 434 | 4060 | 99.5
4 | 168 | 85.4 | 42.9 | 143 | CCc1ncc(CN(C)C(=O)c2cc(-c3ccc(NCCN(C)C)c(C)n3)nc3ccc(Cl)cc23)n1C [Compound 577] | 111 | 10000 | 240 | 1190 | 100
